According to ChEMBL document CHEMBL4024727, “Synthesis and antimycobacterial screening of new thiazolyl-oxazole derivatives” (Eur J Med Chem, 2017):
Converted amounts (≈) assume the structure as drawn.

How the values were obtained:
Assay type in all cases: functional
[1] = system: Bacillus subtilis; assay: Growth inhibition of Bacillus subtilis NCIM 2162 at 1 ug/ml measured after 12 hrs relative to control; conditions: NCIM 2162, 12 h, read-out: GI
[2] = system: Mycobacterium tuberculosis; assay: Antitubercular activity against Mycobacterium tuberculosis H37Ra ATCC 25177 dormant stage by XTT dye based two-fold dilution method
[3] = system: Staphylococcus aureus; assay: Growth inhibition of Staphylococcus aureus NCIM 2602 at 30 ug/ml measured after 12 hrs relative to control; conditions: NCIM 2602, 12 h, read-out: GI
[4] = system: Pseudomonas fluorescens; assay: Growth inhibition of Pseudomonas fluorescens NCIM 2059 at 30 ug/ml measured after 8 hrs relative to control; conditions: NCIM 2059, 8 h, read-out: GI
[5] = system: Mycobacterium tuberculosis; assay: Growth inhibition of Mycobacterium tuberculosis H37Ra ATCC 25177 at 10 ug/ml by XTT dye based two-fold dilution method relative to control; conditions: read-out: GI
[6] = system: Mycobacterium tuberculosis; assay: Growth inhibition of Mycobacterium bovis BCG ATCC 35743 at 10 ug/ml by nitrate reductase based two-fold dilution assay relative to control; conditions: BCG str. ATCC 35743, read-out: GI
[7] = system: Staphylococcus aureus; assay: Growth inhibition of Staphylococcus aureus NCIM 2602 at 1 ug/ml measured after 12 hrs relative to control; conditions: NCIM 2602, 12 h, read-out: GI
[8] = system: Escherichia coli; assay: Growth inhibition of Escherichia coli NCIM 2576 at 10 ug/ml measured after 8 hrs relative to control; conditions: NCIM 2576, 8 h, read-out: GI
[9] = system: Staphylococcus aureus; assay: Growth inhibition of Staphylococcus aureus NCIM 2602 at 10 ug/ml measured after 12 hrs relative to control; conditions: NCIM 2602, 12 h, read-out: GI
[10] = system: Staphylococcus aureus; assay: Antibacterial activity against Staphylococcus aureus NCIM 2602 measured after 12 hrs; conditions: NCIM 2602, 12 h
[11] = system: Mycobacterium tuberculosis; assay: Growth inhibition of Mycobacterium bovis BCG ATCC 35743 at 1 ug/ml by nitrate reductase based two-fold dilution assay relative to control; conditions: BCG str. ATCC 35743, read-out: GI
[12] = system: Bacillus subtilis; assay: Growth inhibition of Bacillus subtilis NCIM 2162 at 30 ug/ml measured after 12 hrs relative to control; conditions: NCIM 2162, 12 h, read-out: GI
[13] = system: Mycobacterium tuberculosis; assay: Growth inhibition of Mycobacterium tuberculosis H37Ra ATCC 25177 at 30 ug/ml by XTT dye based two-fold dilution method relative to control; conditions: read-out: GI
[14] = system: Bacillus subtilis; assay: Antibacterial activity against Bacillus subtilis NCIM 2162 measured after 12 hrs; conditions: NCIM 2162, 12 h
[15] = system: Escherichia coli; assay: Growth inhibition of Escherichia coli NCIM 2576 at 1 ug/ml measured after 8 hrs relative to control; conditions: NCIM 2576, 8 h, read-out: GI
[16] = system: Bacillus subtilis; assay: Growth inhibition of Bacillus subtilis NCIM 2162 at 10 ug/ml measured after 12 hrs relative to control; conditions: NCIM 2162, 12 h, read-out: GI
[17] = system: Pseudomonas fluorescens; assay: Growth inhibition of Pseudomonas fluorescens NCIM 2059 at 10 ug/ml measured after 8 hrs relative to control; conditions: NCIM 2059, 8 h, read-out: GI
[18] = system: Escherichia coli; assay: Growth inhibition of Escherichia coli NCIM 2576 at 30 ug/ml measured after 8 hrs relative to control; conditions: NCIM 2576, 8 h, read-out: GI
[19] = system: Escherichia coli; assay: Antibacterial activity against Escherichia coli NCIM 2576 measured after 8 hrs; conditions: NCIM 2576, 8 h
[20] = system: Pseudomonas fluorescens; assay: Growth inhibition of Pseudomonas fluorescens NCIM 2059 at 1 ug/ml measured after 8 hrs relative to control; conditions: NCIM 2059, 8 h, read-out: GI
[21] = system: Mycobacterium tuberculosis; assay: Growth inhibition of Mycobacterium tuberculosis H37Ra ATCC 25177 at 3 ug/ml by XTT dye based two-fold dilution method relative to control; conditions: read-out: GI
[22] = system: Pseudomonas fluorescens; assay: Antibacterial activity against Pseudomonas fluorescens NCIM 2059 measured after 8 hrs; conditions: NCIM 2059, 8 h
[23] = system: Mycobacterium tuberculosis; assay: Growth inhibition of Mycobacterium bovis BCG ATCC 35743 at 30 ug/ml by nitrate reductase based two-fold dilution assay relative to control; conditions: BCG str. ATCC 35743, read-out: GI
[24] = system: Mycobacterium tuberculosis; assay: Antitubercular activity against Mycobacterium bovis BCG ATCC 35743 dormant stage by nitrate reductase based two-fold dilution assay; conditions: BCG str. ATCC 35743

Structure (SMILES)	inhibition of growth at 1 µg/mL [1] [%]	IC50 [2] [µM]	MIC90 [2] [µM]	inhibition of growth at 30 µg/mL [3] [%]	inhibition of growth at 30 µg/mL [4] [%]	inhibition of growth at 10 µg/mL [5] [%]	inhibition of growth at 10 µg/mL [6] [%]	inhibition of growth at 1 µg/mL [7] [%]	inhibition of growth at 10 µg/mL [8] [%]	inhibition of growth at 10 µg/mL [9] [%]	MIC [10] [µM]	inhibition of growth at 30 µg/mL [12] [%]	MIC [14] [µM]	inhibition of growth at 1 µg/mL [15] [%]	inhibition of growth at 10 µg/mL [16] [%]	inhibition of growth at 10 µg/mL [17] [%]	inhibition of growth at 30 µg/mL [18] [%]	MIC [19] [µM]	inhibition of growth at 1 µg/mL [20] [%]	MIC [22] [µM]	other results
Cc1nc(-c2ccccc2)oc1-c1csc(-c2ccc(Cl)cc2)n1	14.9	> 100	> 100	48.9	44.9	45	41	12.8	25.3	22.3	> 100	45.7	> 100	11.1	29.2	23.7	48.9	> 100	10.5	> 100	inhibition of growth at 1 µg/mL [11]: 30%; inhibition of growth at 30 µg/mL [13]: 46%; inhibition of growth at 3 µg/mL [21]: 38%; inhibition of growth at 30 µg/mL [23]: 43%; IC50 [24]: > 100 µM; MIC90 [24]: > 100 µM
Cc1nc(-c2ccc(F)cc2)oc1-c1csc(-c2ccc(F)cc2)n1	40.5	> 100	> 100	67	63.4	5	6	43	59	51.4	> 100	63.8	> 100	43.8	55.3	55.3	62.5	> 100	40.6	> 100	inhibition of growth at 1 µg/mL [11]: 3%; inhibition of growth at 30 µg/mL [13]: 6%; inhibition of growth at 30 µg/mL [23]: 20%; IC50 [24]: > 100 µM; MIC90 [24]: > 100 µM
Cc1nc(-c2ccccc2)oc1-c1csc(-c2ccc(F)cc2)n1	37.7	> 100	> 100	60.5	61	13	16	34.6	47.2	41.7	> 100	60.6	> 100	38.4	49.4	45.1	58.5	> 100	31.8	> 100	inhibition of growth at 1 µg/mL [11]: 11%; inhibition of growth at 30 µg/mL [13]: 13%; inhibition of growth at 3 µg/mL [21]: 8%; inhibition of growth at 30 µg/mL [23]: 27%; IC50 [24]: > 100 µM; MIC90 [24]: > 100 µM
Cc1nc(-c2ccccc2)oc1-c1csc(-c2ccc(Br)cc2)n1	65	> 100	> 100	85.2	85.2	17	36	67.8	79.1	72.2	> 100	88	> 100	67.7	74.3	74.2	85.6	> 100	64.5	> 100	inhibition of growth at 1 µg/mL [11]: 31%; inhibition of growth at 30 µg/mL [13]: 33%; inhibition of growth at 3 µg/mL [21]: 11%; inhibition of growth at 30 µg/mL [23]: 39%; IC50 [24]: > 100 µM; MIC90 [24]: > 100 µM
CC1(C)S[C@@H]2[C@H](NC(=O)[C@H](N)c3ccccc3)C(=O)N2[C@H]1C(=O)O [AMPICILLIN]	90	–	–	99.4	98.8	–	–	98.2	97.9	98.9	2.86 (≈ 0.999 µg/mL)	96.8	29.2 (≈ 10.2 µg/mL)	97.5	94.5	97.7	100	4.18 (≈ 1.46 µg/mL)	96.4	12.5 (≈ 4.36 µg/mL)	–
